Results published in ChEMBL document CHEMBL3525906, “A comprehensive assessment of repaglinide metabolic pathways: impact of choice of in vitro system and relative enzyme contribution to in vitro clearance” (Drug Metab Dispos, 2012).

What was measured:
[1] = biological target: Cytochrome P450 3A4 (Homo sapiens, UniProt P08684); test: Fraction metabolism via CYP3A4 in human hepatocytes; type: ADME, cell-based, Hepatocyte
[2] = organism: Homo sapiens; test: Drug metabolism in human patient assessed as fold change in metabolite M2/M1 AUC ratio at 0.25 mg co-treated with telithromycin relative to telithromycin non-treated patient; type: ADME, organism-based; conditions: in vivo
[3] = organism: Homo sapiens; test: Ratio of AUC in human patient at 0.25 mg to AUC in human patient at 0.25 mg co-treated with cyclosporine; type: ADME, organism-based; conditions: in vivo
[4] = organism: Homo sapiens; test: Drug metabolism in human patient assessed as fold change in metabolite M2/M4 AUC ratio at 0.25 mg co-treated with telithromycin and montelukast relative to telithromycin and montelukast non-treated patient; type: ADME, organism-based; conditions: in vivo
[5] = organism: Homo sapiens; test: Drug metabolism in human patient assessed as fold change in metabolite M2/M1 AUC ratio at 0.25 mg co-treated with montelukast relative to montelukast non-treated patient; type: ADME, organism-based; conditions: in vivo
[6] = test system: Liver microsome; test: Drug metabolism in human liver microsomes assessed as 2-despiperidyl-2-(5-carboxypentylamine) repaglinide formation measured per mg of protein at 0.5 to 150 uM by LC-MS/MS method; type: ADME
[7] = test system: Hepatocyte; test: Unbound intrinsic clearance in human hepatocytes assessed as 3'-hydroxy repaglinide formation measured per 10^6 cells at 0.5 to 150 uM by LC-MS/MS method; type: ADME, cell-based
[8] = organism: Homo sapiens; test: Ratio of AUC in human patient at 0.25 mg to AUC in human patient at 0.25 mg co-treated with itraconazole; type: ADME, organism-based; conditions: in vivo
[9] = test system: Hepatocyte; test: Unbound intrinsic clearance in human hepatocytes assessed as 2-despiperidyl-2-amino repaglinide formation measured per 10^6 cells at 0.5 to 150 uM by LC-MS/MS method; type: ADME, cell-based
[10] = Unbound intrinsic clearance in human hepatic S9 fraction assessed as 2-despiperidyl-2-amino repaglinide formation measured per mg of protein at 0.5 to 150 uM by LC-MS/MS method; type: ADME, tissue-based, Liver; conditions: s9, 150 µM
[11] = biological target: T1, Cytochrome P450 2C8 (Homo sapiens, UniProt P10632); test: Fraction metabolism via CYP2C8 in human hepatocytes; type: ADME, cell-based, Hepatocyte
T1 sequence (P10632 whole entry): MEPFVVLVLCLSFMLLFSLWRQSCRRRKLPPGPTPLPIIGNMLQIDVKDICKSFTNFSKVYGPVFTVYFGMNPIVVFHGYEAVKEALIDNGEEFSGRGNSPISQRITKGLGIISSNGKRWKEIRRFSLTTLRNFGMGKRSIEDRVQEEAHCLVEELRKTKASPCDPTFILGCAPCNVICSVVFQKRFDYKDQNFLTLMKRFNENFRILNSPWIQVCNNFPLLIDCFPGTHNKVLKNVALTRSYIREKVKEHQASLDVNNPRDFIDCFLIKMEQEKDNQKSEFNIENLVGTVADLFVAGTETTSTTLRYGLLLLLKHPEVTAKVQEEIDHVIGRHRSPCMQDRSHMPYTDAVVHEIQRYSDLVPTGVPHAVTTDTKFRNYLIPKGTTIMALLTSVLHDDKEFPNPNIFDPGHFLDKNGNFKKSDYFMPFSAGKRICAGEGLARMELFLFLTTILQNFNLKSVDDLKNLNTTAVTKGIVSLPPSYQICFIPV

[12] = biological target: T1, Cytochrome P450 2C8; test: Fraction metabolism via CYP2C8 in human hepatic S9 fraction; type: ADME, Liver
[13] = organism: Homo sapiens; test: Drug metabolism in variable SLCO1B1 genotype containing human patient assessed as fold change in metabolite M2/M4 AUC ratio at 0.25 mg co-treated with gemfibrozil relative to gemfibrozil non-treated patient; type: ADME, organism-based; conditions: in vivo
[14] = Unbound intrinsic clearance in human hepatic S9 fraction assessed as glucuronide formation measured per mg of protein at 0.5 to 150 uM by LC-MS/MS method; type: ADME, tissue-based, Liver; conditions: s9, 150 µM
[15] = Drug metabolism in human hepatocytes assessed as glucuronide formation by LC-MS/MS method; type: ADME, cell-based, Hepatocyte

Cytochrome P450 3A4, sequence (P08684 whole entry): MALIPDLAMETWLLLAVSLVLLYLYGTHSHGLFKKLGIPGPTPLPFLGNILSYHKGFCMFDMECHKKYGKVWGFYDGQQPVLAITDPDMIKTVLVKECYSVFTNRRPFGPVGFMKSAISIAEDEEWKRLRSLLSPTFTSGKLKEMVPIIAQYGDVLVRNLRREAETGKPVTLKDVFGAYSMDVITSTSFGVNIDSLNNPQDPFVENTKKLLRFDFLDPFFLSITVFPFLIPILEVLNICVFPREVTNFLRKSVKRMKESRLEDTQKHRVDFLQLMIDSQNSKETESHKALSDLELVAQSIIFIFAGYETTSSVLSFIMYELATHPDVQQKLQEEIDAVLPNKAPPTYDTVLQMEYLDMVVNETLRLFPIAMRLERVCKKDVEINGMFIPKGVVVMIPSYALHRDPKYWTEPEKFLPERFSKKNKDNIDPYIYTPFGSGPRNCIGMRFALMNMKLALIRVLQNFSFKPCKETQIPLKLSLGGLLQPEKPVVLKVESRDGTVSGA

Structure (SMILES): CCOc1cc(CC(=O)N[C@@H](CC(C)C)c2ccccc2N2CCCCC2)ccc1C(=O)O [REPAGLINIDE]
- Fm [1]: 0.41
- fold change (FC) [2]: 3.9
- Ratio [3]: 2.4
- fold change (FC) [4]: 0.82
- fold change (FC) [5]: 1.1
- Vmax [6]: 28 pmol/min/mg
- CL free [7]: 2.4 uL/min/10^6cells
- Ratio [8]: 1.4
- CL free [9]: 0.75 uL/min/10^6cells
- CL free [10]: 0.76 µL/min/mg
- Fm [11]: 0.49
- Fm [12]: 0.41
- fold change (FC) [13]: 6.4
- CL free [14]: 1.8 µL/min/mg
- Km [15]: 53 µM
